Reference: patent US9382568B2, “Determining the sensitivity of a cell to a drug” (RANDOX LABORATORIES LTD., priority 2008, dated 2016)

Experiments:
[1] = tested on: NCTC 13427 (lux+ cdd deficient E. coli MG 1655 expressing human dCK); experiment: Response of bioluminescent bacterial biosensor (growth OD600 and light output); type: cell-based
From the text: (§1) Bacterial Strains, Plasmids and Growth Media. E. coli SØ5218 is a cdd-deficient strain expressing the human dCK cDNA on the IPTG-inducible pTrc99-A plasmid. E. coli MG1655 is a derivative of the wild-type E. coli K-12 with a requirement for pyrimidine in minimal medium, due to suboptimal expression of the orotate phosphoribosyltransferase gene coded for by pyrE. Both strains were made self-bioluminescent by transforming them with the broad-host vector pBBR1MCS-2 carrying the luxCDABE cassette from Photorhabdus luminescens as an EcoRI PCR fragment. Luria-Bertani (LB) medium was used for routine culturing of bacteria. The antibiotics ampicillin (to maintain pTrc-A) and kanamycin (to maintain pBBR1MCS-2) were added at 100 and 10 μg/ml, respectively. Growth inhibition experiments were performed in LB RPMI 1640 or in minimal salt medium (AB) plus 0.2% glucose, 0.2% vitamin-free casamino acids and supplemented with thiamine and leucine.
Construction of a cdd-deficient strain of E. coli MG 1655. A library of E. coli MG 1655 strains was constructed using transposition mutagenesis with P1 phage carrying the Tn10 transposon. Mutants carrying the transposon were selected for by plating on tetracycline (10 μg/ml) agar plates and cdd mutants were selected for by plating on to plates containing 10 μg/ml of the analogue 5-fluoro-2′ deoxycytidine which is toxic to E. coli expressing cdd. The phenotype of cdd mutants was confirmed by the absence of cytidine deaminase activity.
In order to measure Ara-C response in a nutrient rich intracellular environment, an alternative cdd-deficient strain of a bioluminescent E. coli MG1655 mutant was constructed using transposon mutagenesis, which was further transformed with pTrc99-A, to give IPTG inducible expression of dCK. […] One possible explanation for the light increase is that the DNA damage caused by Ara-CTP induces bioluminescence that could be used in DNA repair by a photo-reactivation process.
In order to increase the specificity of the proposed assay, direct effects of the active intracellular drug derivative, Ara-CTP, on the bacterial biosensor were monitored (FIG. 3A). […] To verify this, the assay was repeated with the addition of alkaline phosphatase at the start.

E. coli SØ5218 [2] = experiment: Growth of cdd-deficient E. coli mutant SØ5218 expressing human dCK; type: cell-based; details: rich growth medium (data not shown)
From the text: Ara-C has no effect on Escherichia coli as it lacks dCK and deaminates Ara-C into Ara-uracil through the activity of deoxycytidine deaminase (cdd). Wang et al., Antimicrob. Agents. […] The Ara-C effect on growth was completely abolished when assayed in the absence of the dCK inducible […], IPTG, indicating human dCK expression in the bacteria leads to Ara-CTP incorporation into bacterial DNA.
as §1, with “leucine. […]” for “leucine.”

KG-1a cells [3] = experiment: Cell lysis assay with bioluminescent reporter bacteria, cell line; type: cell-based; details: KG-1a treated with 25 μM Ara-C, p=0.0001
Description: (§2) Cell lines, bone marrow and blood samples. The monocytic cell line KG-1a (DSMZ, Germany) was grown and maintained as a cell suspension in RPMI 1640 medium supplemented with 2 mM L-glutamine and 10% foetal calf serum. Mononuclear cell fractions were isolated from patient peripheral blood or bone marrow samples (n=8) using density gradient centrifugation (SG […]) followed by resuspension in RPMI 1640 medium prior to incubation with Ara-C. Cryopreserved bone marrow samples were thawed and re-suspended in RPMI 1640 medium prior to drug exposure.
(§3) Cell Lysis Assay. AML cell lines or patient derived samples were treated with 25 μM Ara-C for 90 min at 37° C. and 5% CO2, harvested, washed and resuspended in fresh RPMI 1640 medium. EDTA and saponin were added to final concentrations of 1.5 mM and 0.1%, respectively. Samples were then vortexed for 30 sec and cell debris were removed by centrifugation at 1027 g for 5 min. Samples from the lysate or supernatant were mixed with reporter bacteria, 1 mM of IPTG an 10 units of alkaline phosphatase. Bioluminescence and growth (OD600) of the bacteria were monitored in a multimode microplate reader. Sensitivity of AML cell lines or patient derived samples to Ara-C was also assayed using Cell Titer-Glo® Luminescent Cell Viability Assay kit (Promega). […]

KG-1a cells [4] = experiment: Cell Titer-Glo luminescent cell viability (three day cytotoxicity) assay, cell line; type: cell-based; details: 25 μM Ara-C, 72 hours
Description: as §2, §3

[5] = tested on: AML patient derived samples; experiment: Cell Titer-Glo luminescent cell viability (cytotox) assay, patient samples; type: cell-based, human; details: 25 μM Ara-C 72 hours
Description: as §2
(§4) Cell Lysis Assay. AML cell lines or patient derived samples were treated with 25 μM Ara-C for 90 min at 37° C. and 5% CO2, harvested, washed and resuspended in fresh RPMI 1640 medium. EDTA and saponin were added to final concentrations of 1.5 mM and 0.1%, respectively. Samples were then vortexed for 30 sec and cell debris were removed by centrifugation at 1027 g for 5 min. Samples from the lysate or supernatant were mixed with reporter bacteria, 1 mM of IPTG an 10 units of alkaline phosphatase. Bioluminescence and growth (OD600) of the bacteria were monitored in a multimode microplate reader. Sensitivity of AML cell lines or patient derived samples to Ara-C was also assayed using Cell Titer-Glo® Luminescent Cell Viability Assay kit (Promega). Samples were treated with 25 μM Ara-C for 72 hours at 37° C. and 5% CO2 before measuring intracellular levels of ATP according to manufacturer's instructions. Paired t-tests were used to analyse significant differences in bioluminescence output between control and treated assay samples.

[6] = tested on: AML patient derived samples; experiment: Cell lysis assay with bioluminescent reporter bacteria, patient samples; type: cell-based, human; details: for Bioluminescent Assay (sensitive): 25 μM Ara-C 90 min; for Treatment % difference in peak RLU a) L:LI / Treatment % difference in peak RLU b) L:LIP / Treatment % difference in peak RLU c) LI:LIP: drug treated minus control
Description: as §2, §4
A representation of light output during the bioluminescent assay for patients who are metabolic sensitive, metabolic resistant, metabolic partially resistant and uptake resistant is shown in FIG. 5.
Table 3 validates the application of the bioluminescent assay using relative percentage differences in peak light output from the various treatments to identify resistant and sensitive patients. Data shown in Table 3 is computed according to the equation {[RLU drug treated sample (LIP/LI)−RLU control (LIP/LI)]×100}, using c) as an example.

AML [7] = experiment: Clinical outcome of AML patients (Ara-C used in induction therapy); type: in vivo, human; parameters: key: NR = No remission; CR = Complete remission
Description: The assay was evaluated using a KG-1a cell line and AML samples from patients with known response to Ara-C used in induction therapy. FIG. 6 depicts the light output from the lysate of the Ara-C sensitive cell line KG-1a treated with high (25 μM) Ara-C concentrations. […] The three day cytotoxicity test confirmed that KG-1a cells are sensitive to Ara-C.
The cell lysis assay was applied to clinical samples of peripheral blood ([…]) from AML patients. These preliminary assays, conducted on 7 clinical samples, gave 100% correlation with clinical response to therapy.

E. coli SØ5218 [8] = details: upon expression of human dCK gene (IPTG), Wang et al. 1998; cited from earlier work
Escherichia coli = details: lacks dCK, deaminates Ara-C via cdd; cited from earlier work
AML [9] = experiment: Clinical outcome of AML patients (Ara-C used in induction therapy); type: in vivo, human; parameters: key: NR = No remission; CR = Complete remission; details: Table 2 patient 4, diagnosis M4
[10] = Table 2 patient 1, diagnosis M2
[11] = Table 2 patient 2, diagnosis M4
[12] = Table 2 patient 3, diagnosis M2
[13] = Table 2 patient 4, diagnosis M4
[14] = Table 2 patient 5, diagnosis M4
[15] = Table 2 patient 6, diagnosis M0
[16] = Table 2 patient 7, diagnosis M3

Nc1ccn([C@@H]2O[C@H](COP(=O)(O)OP(=O)(O)OP(=O)(O)O)[C@@H](O)[C@@H]2O)c(=O)n1 [Ara-CTP]
direct entry into reporter bacteria ([1]; Ara-CTP added without alkaline phosphatase, FIG. 3A): does not directly enter reporter bacteria | time after which increase in light output was evident ([1]; alkaline phosphatase added at the start, FIG. 3B): 3 to 5 h | time of growth after which increase in light output was observed ([1]; no alkaline phosphatase added): at least 15 h

Nc1ccn([C@@H]2O[C@H](CO)[C@@H](O)[C@@H]2O)c(=O)n1 [Ara-C]
light output (bioluminescence, RLU) of reporter strain ([1]; drug-treated cultures, IPTG present, p=0.0001): significant increase in light output | growth (OD600) of reporter strain ([1]; in the presence of Ara-C, induced by IPTG, nutrient rich medium): reduced growth | lowest concentration the bacterial biosensor responds to ([1]; low concentrations of Ara-C, FIG. 2): 0.05 µM | response of SØ5218 (E. coli SØ5218 [2]): did not respond | light output from IPTG-induced lysate with BAP (KG-1a cells [3]): significant increase in the light output | light output from IPTG-induced lysate without BAP (KG-1a cells [3]): significant increase in the light output | three day cytotoxicity test (KG-1a cells [4]): sensitive | Cytotox Assay (DLO) [5, 10]: 84% | Cytotox Assay (DLO) [5, 11]: 99% | Cytotox Assay (DLO) [5, 12]: 79% | Cytotox Assay (DLO) [5, 13]: 99% | Cytotox Assay (DLO) [5, 14]: 62% | Cytotox Assay (DLO) [5, 15]: 5% | Cytotox Assay (DLO) [5, 16]: 91% | Bioluminescent Assay (sensitive) [6, 10]: No | Bioluminescent Assay (sensitive) [6, 11]: Yes | Bioluminescent Assay (sensitive) [6, 12]: No | Bioluminescent Assay (sensitive) [6, 13]: Yes | Bioluminescent Assay (sensitive) [6, 14]: No | Bioluminescent Assay (sensitive) [6, 15]: No | Bioluminescent Assay (sensitive) [6, 16]: No | interaction of the drug with the patient sample (uptake and metabolism category) ([6]; Table 3 patient 1): take up and metabolise the drug | Treatment % difference in peak RLU a) L:LI ([6]; Table 3 patient 1): −10.25% | Treatment % difference in peak RLU b) L:LIP ([6]; Table 3 patient 1): 19.20% | Treatment % difference in peak RLU c) LI:LIP ([6]; Table 3 patient 1): 24.19% | interaction of the drug with the patient sample (uptake and metabolism category) ([6]; Table 3 patient 2): take up and metabolise the drug | Treatment % difference in peak RLU a) L:LI ([6]; Table 3 patient 2): −4.00% | Treatment % difference in peak RLU b) L:LIP ([6]; Table 3 patient 2): 62.40% | Treatment % difference in peak RLU c) LI:LIP ([6]; Table 3 patient 2): 48.03% | interaction of the drug with the patient sample (uptake and metabolism category) ([6]; Table 3 patient 3): takes up but does not metabolise the drug | Treatment % difference in peak RLU a) L:LI ([6]; Table 3 patient 3): −81.04% | Treatment % difference in peak RLU b) L:LIP ([6]; Table 3 patient 3): −120.00% | Treatment % difference in peak RLU c) LI:LIP ([6]; Table 3 patient 3): −4.51% | interaction of the drug with the patient sample (uptake and metabolism category) ([6]; Table 3 patient 4, not clinically confirmed): resistant to take up of the drug | Treatment % difference in peak RLU a) L:LI ([6]; Table 3 patient 4): 2.28% | Treatment % difference in peak RLU b) L:LIP ([6]; Table 3 patient 4): 3.28% | Treatment % difference in peak RLU c) LI:LIP ([6]; Table 3 patient 4): 0.88% | Treatment % difference in peak RLU a) L:LI ([6]; Table 3 patient 5): −61.46% | Treatment % difference in peak RLU b) L:LIP ([6]; Table 3 patient 5): −98.39% | Treatment % difference in peak RLU c) LI:LIP ([6]; Table 3 patient 5): −13.87% | Treatment % difference in peak RLU a) L:LI ([6]; Table 3 patient 6): −13.59% | Treatment % difference in peak RLU b) L:LIP ([6]; Table 3 patient 6): −7.03% | Treatment % difference in peak RLU c) LI:LIP ([6]; Table 3 patient 6): 5.50% | Treatment % difference in peak RLU a) L:LI ([6]; Table 3 patient 7): −16.37% | Treatment % difference in peak RLU b) L:LIP ([6]; Table 3 patient 7): −16.37% | Treatment % difference in peak RLU c) LI:LIP ([6]; Table 3 patient 7): 1.20% | Clinical Outcome (AML [7]; [10]): NR | Clinical Outcome (AML [7]; [11]): CR | Clinical Outcome (AML [7]; [12]): NR | Clinical Outcome (AML [7]; [14]): NR | Clinical Outcome (AML [7]; [15]): NR | Clinical Outcome (AML [7]; Table 2 patient 7, diagnosis M3 (Remission, death)): Remission | Clinical Outcome (AML [7]; Table 3 patient 1): sensitive | Clinical Outcome (AML [7]; Table 3 patient 2): sensitive | Clinical Outcome (AML [7]; Table 3 patient 3): resistant | Clinical Outcome (AML [7]; Table 3 patient 7): resistant | relative growth of SØ5218 (E. coli SØ5218 [8]): reduced relative growth | effect on Escherichia coli (Escherichia coli): no effect | Clinical Outcome (AML [9]): CR
